Molecules are shown by their SMILES. Some results are limits rather than exact numbers.

The text below walks through data of patent US6362209B1, “Heterocyclic aromatic oxazole compounds and use thereof” (Japan Tobacco Inc., priority 1994, dated 2002).

The target of one test is cyclooxygenase-1 (Homo sapiens, UniProt P23219). The test is described as follows: Inhibitory action on cyclooxygenase-1 (conversion of 14C arachidonic acid to PGH2). It counts as biochemical. The settings on record: enzyme prepared from human platelets; preincubation 24° C. 5 minutes; read-out: IC50 COX-1.
In test [1] the test system is carrageenin-induced podedema. The test is described as follows: Effects on carrageenin-induced podedema in rats. The note with it: oral dose one hour before carrageenin; limb volume 3 hours after carrageenin; dose inhibiting by 30% relative to control. The class given is in vivo, male Donryu rats. On the procedure:
Experimental Example 2 (effects on carrageen in induced podedema) Carrageenin (1%, 0.05 ml) dissolved in physiological saline was subcutaneously injected to the left hindlimb of male Donryu rats to induce podedema. The degree of podedema was evaluated by measuring the volume of the limb 3 hours after carrageenin administration. A test compound (1, 3, 10 or 30 mg/kg) was orally administered one hour before carrageenin administration, and suppression thereby was studied. Inhibitory activity was expressed by the dose (ED30) of the test compound necessary for inhibiting by 30% relative to the control group.

The target in the next test is T1, human cyclooxygenase-2 (Homo sapiens, UniProt P35354).
T1 sequence (P35354 18-604): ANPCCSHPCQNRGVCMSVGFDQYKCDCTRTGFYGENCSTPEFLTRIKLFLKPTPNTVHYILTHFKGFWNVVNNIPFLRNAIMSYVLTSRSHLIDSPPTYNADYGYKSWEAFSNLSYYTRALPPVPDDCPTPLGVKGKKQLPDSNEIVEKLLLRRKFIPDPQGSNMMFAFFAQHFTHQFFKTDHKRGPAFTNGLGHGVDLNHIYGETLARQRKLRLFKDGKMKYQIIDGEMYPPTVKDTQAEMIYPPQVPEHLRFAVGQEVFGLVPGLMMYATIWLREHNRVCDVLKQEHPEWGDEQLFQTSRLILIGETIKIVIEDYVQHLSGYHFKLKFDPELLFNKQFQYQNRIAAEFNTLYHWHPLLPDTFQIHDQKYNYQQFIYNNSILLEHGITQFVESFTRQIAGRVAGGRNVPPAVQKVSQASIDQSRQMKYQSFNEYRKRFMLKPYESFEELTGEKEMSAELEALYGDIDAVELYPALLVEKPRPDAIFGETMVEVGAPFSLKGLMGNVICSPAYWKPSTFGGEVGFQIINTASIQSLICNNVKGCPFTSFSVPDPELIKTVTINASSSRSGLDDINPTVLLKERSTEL
The test can be described thus: Inhibitory action on cyclooxygenase-2 (conversion of 14C arachidonic acid to PGH2).

cyclooxygenase-1, sequence (P23219 24-599): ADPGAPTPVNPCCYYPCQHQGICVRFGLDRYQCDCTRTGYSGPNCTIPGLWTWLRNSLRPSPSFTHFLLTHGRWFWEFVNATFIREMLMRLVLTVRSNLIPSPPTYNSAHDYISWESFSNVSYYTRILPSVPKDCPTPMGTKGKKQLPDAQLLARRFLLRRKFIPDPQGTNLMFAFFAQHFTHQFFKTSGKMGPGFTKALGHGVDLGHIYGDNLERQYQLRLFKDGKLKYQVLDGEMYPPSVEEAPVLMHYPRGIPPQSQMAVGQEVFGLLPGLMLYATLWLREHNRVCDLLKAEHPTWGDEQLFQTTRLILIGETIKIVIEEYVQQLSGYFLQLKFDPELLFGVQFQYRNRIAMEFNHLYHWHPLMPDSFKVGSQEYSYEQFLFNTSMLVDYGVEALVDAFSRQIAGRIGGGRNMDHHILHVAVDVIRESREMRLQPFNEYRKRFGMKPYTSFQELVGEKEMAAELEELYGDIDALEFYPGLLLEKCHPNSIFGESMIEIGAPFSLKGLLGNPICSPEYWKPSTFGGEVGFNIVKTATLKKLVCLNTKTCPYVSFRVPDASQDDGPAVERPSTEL
Procedure for cyclooxygenase-1: (§1) The enzymatic activity was determined from the percent conversion of ^14C arachidonic acid into prostaglandin H2 (PGH2) and the decomposed product thereof. That is, a test sample (20 μl), an enzyme solution (20 μl) and distilled water (10 μl) were added to 100 mM Tris-HCl buffer (pH 8, 140 μl) containing hematin (2 μM) and tryptophan (5 mM), and the mixture was thoroughly stirred, which was followed by preincubation at 24° C. for 5 minutes. Then, a ^14C arachidonic acid solution (10 μl) was added and the mixture was reacted at 24° C., whereafter a solution (40 μl) of ethyl ether/methanol/1M citric acid (30/4/1) iceooled to −20° C. was added to stop the reaction. The reaction mixture was centrifuged for 5 minutes at 3,000 rpm to give an ether layer which was placed on a thin plate, and developed with ethyl ether/methanol/acetic acid (90/2/0.1) to determine percent conversion (A) from arachidonic acid to PGH2 and the decomposed product thereof.
Inhibition (%)=(1A/B)×100
(§2) An enzyme prepared from human platelets was used as an enzyme solution of cyclooxygenase-1, and an enzyme expressed by a yeast, into which cDNA of human cyclooxygenase-2 had been introduced using a kit of Invitrogen Corp., was used as an enzyme solution of cyclooxygenase-2.
Procedure for human cyclooxygenase-2: as §1
Inhibition (%)=(1A/B)×100
as §2

What is called IC50 is the concentration that inhibits the measured activity by half. As to `Cc1nc(C2CCCCC2)c(-c2ccc(S(N)(=O)=O)cc2)o1` [Control 1, reference compound], the IC50 on cyclooxygenase-1 worked out at 45000 nM.

Regarding `Cc1nc(C2CCCCC2)c(-c2ccc(S(N)(=O)=O)c(F)c2)o1` [Example 2, 5-(4-aminosulfonyl-3-fluorophenyl)-4-cyclohexyl-2-methyloxazole], the “carrageenin-induced podedema in rats, ED30” value in test [1] amounted to 5.5 mg/kg p.o. This compound also had an IC50 at human cyclooxygenase-2 of 70 nM.

Take `Cc1nc(C2CCCCC2)c(-c2ccc(S(C)(=O)=O)c(F)c2)o1` [Example 3, 4-cyclohexyl-5-(3-fluoro-4-methylsulfonylphenyl)-2-methyloxazole]: the figures for the IC50 at cyclooxygenase-1 and at human cyclooxygenase-2 were more than 100000 nM and 300 nM, respectively.

As to `Cc1nc(C2CCCCC2)c(-c2cc(F)c(S(N)(=O)=O)c(F)c2)o1` [Example 6], the IC50 was more than 100000 nM at cyclooxygenase-1 and 160 nM at human cyclooxygenase-2.

Turning to `Cc1nc(-c2ccc(F)cc2)c(-c2ccc(S(N)(=O)=O)c(F)c2)o1` [Example 7, 5-(4-aminosulfonyl-3-fluorophenyl)-4-(4-fluorophenyl)-2-methyloxazole], the IC50 at cyclooxygenase-1 was determined as 37000 nM; against human cyclooxygenase-2 it was 30 nM.

In the case of `COc1ccc2c(c1)c(CC(=O)O)c(C)n2C(=O)c1ccc(Cl)cc1` [Indomethacin, reference compound], the “carrageenin-induced podedema in rats, ED30” value in test [1] is reported as 2.9 mg/kg p.o.
